Assay results from US20150183834A1 (priority 2005, published 2015).

Key:
human PBMC [1] = type: cell-based
human PBMC [2] = type: cell-based; remark: listed apart in the source
Rhesus macaque PBMC [3] = type: cell-based, Rhesus (Macaca mulatta)
Rhesus macaque PBMC [4] = type: cell-based, Rhesus (Macaca mulatta); remark: listed apart in the source
Rhesus macaque PBMC [5] = type: cell-based, Rhesus (Macaca mulatta); remark: listed apart in the source
human PBMC [6] = type: cell-based; remark: listed apart in the source
[7] = test system: purified human CD4+ and CD8+ T cells; type: cell-based
[8] = test system: human peripheral blood mononuclear cells (PBMCs); type: cell-based
human PBMC [9] = type: cell-based; remark: listed apart in the source
human PBMC [10] = type: cell-based; remark: listed apart in the source
protein kinase C = conditions: cited from earlier work

ILNRKAIDFLLQRWGGT [SEBOV peptide]
induction of apoptosis in CD4+ and CD8+ T cells (in words) (human PBMC [1]): Effects were similar | CD69+CD4+ T cells (in words) (human PBMC [2]): trend toward reduction | percentage of CD69+ CD8+ T cells (in words) (human PBMC [2]): significant reduction

ILNRKAIDFLLQRWGGT [ZEBOV peptide]
IFN-γ (Rhesus macaque PBMC [3]): significant decrease | IL1-β (Rhesus macaque PBMC [3]): significant decrease | IL-12p40 (Rhesus macaque PBMC [3]): significant decrease | Levels of IL-8 (Rhesus macaque PBMC [3]): did not alter | Levels of MIP1-α (Rhesus macaque PBMC [3]): did not alter | TNF-α (Rhesus macaque PBMC [3]): significant decrease | T cell activation (in words) (Rhesus macaque PBMC [4]): Decreased | depletion of CD4+ T cells and CD8+ T cells (in words) (Rhesus macaque PBMC [4]): Significant depletion | fold increase in apoptotic CD4+ cells (human PBMC [1]): 3.6 fold | fold increase in apoptotic CD8+ cells (human PBMC [1]): 2.0 fold | percentage of Annexin V+ PI- CD4+ (human PBMC [1]): 43.6±5.8% | percentage of Annexin V+ PI− CD8+ (human PBMC [1]): 29.7±3.7% | apoptosis (in words) (Rhesus macaque PBMC [5]): increased | fold decrease in the number of CD4+ T cells (human PBMC [6]): 7.4 fold | fold decrease in the number of CD8+ T cells (human PBMC [6]): 4.4 fold | fold reduction in the cell surface expression of CD4 (human PBMC [6]): 3.5 fold | fold reduction in the cell surface expression of CD8 (human PBMC [6]): 4.2 fold | mean fluorescence intensity value for CD4 expression ± SD (human PBMC [6]): 961±40 | mean fluorescence intensity value for CD8 expression ± SD (human PBMC [6]): 4,025±75 | number of CD4+ T cells (human PBMC [6]): 5.5±1.8 ×10^4 | number of CD8+ T cells (human PBMC [6]): 5.8±1.6 ×10^4 | percentage of cells positive for CD4 and CD8 (human PBMC [6]): significant decrease | activation and cell death in purified CD4+ or CD8+ T cell population [7]: sufficient to induce activation and cell death | levels of IL-2 [8]: decreased levels | levels of IL-10 [8]: increased levels | levels of IL-12 [8]: decreased levels | mean fluorescent intensity of CD25 expression on CD4+ and CD8+ T cells (human PBMC [2]): decreased | mean fluorescent intensity of CD69 expression on CD4+ and CD8+ T cells (human PBMC [2]): decreased | percentage of CD4+ T cells that are CD25+ (human PBMC [2]): 65.9±11.8% | percentage of CD4+ T cells that are CD69+ (human PBMC [2]): 69.4±3.4% | percentage of CD8+ T cells that are CD25+ (human PBMC [2]): 43.9+9.0% | percentage of CD8+ T cells that are CD69+ (human PBMC [2]): 67.9±9.6% | percentages of both CD69+CD4+ T cells and CD69+CD8+ T cells (in words) (human PBMC [2]): significant reduction | IL-1β (human PBMC [9]): dose-dependent reduction | IL-4 (human PBMC [9]): trend toward decrease | IL-6 (human PBMC [9]): no pattern | IL-10 (human PBMC [9]): increase | MCP-1 (human PBMC [9]): dose-dependent reduction | MIP1-α (human PBMC [9]): no effect | TNF-α (human PBMC [9]): dose-dependent reduction | anti-CD3/CD28-induced production of IFN-γ (human PBMC [9]): suppressed | anti-CD3/CD28-induced production of IL-12p40 (human PBMC [9]): suppressed | production of IL-2 (human PBMC [9]): suppressed | fold decrease in the percentage of cells in the S phase (human PBMC [10]): 3.5 fold | fold increase in the number of cells with hypodiploid DNA content (human PBMC [10]): 8.8 fold | percentage of BrdU labeled CD4+ cells (human PBMC [10]): 3.9±0.6% | percentage of BrdU labeled CD8+ cells (human PBMC [10]): 4.8±1.8% | percentage of cells in S phase (human PBMC [10]): 8.0±0.5% | percentage of cells with hypodiploid DNA (human PBMC [10]): 22.0±2.2%

LINRHAIDFLLTRWGGT [MARV peptide]
induction of apoptosis in CD4+ and CD8+ T cells (in words) (human PBMC [1]): Effects were similar | percentage of cells positive for CD4 and CD8 (human PBMC [6]): significant decrease | CD69+CD4+ T cells (in words) (human PBMC [2]): trend toward reduction | percentage of CD69+ CD8+ T cells (in words) (human PBMC [2]): significant reduction | percentages of both CD69+CD4+ T cells and CD69+CD8+ T cells (in words) (human PBMC [2]): significant reduction

LLNRKAIDFLLQRWGGT [REBOV peptide]
IFN-γ (Rhesus macaque PBMC [3]): significant decrease | IL1-β (Rhesus macaque PBMC [3]): significant decrease | IL-12p40 (Rhesus macaque PBMC [3]): significant decrease | Levels of IL-8 (Rhesus macaque PBMC [3]): did not alter | Levels of MIP1-α (Rhesus macaque PBMC [3]): did not alter | TNF-α (Rhesus macaque PBMC [3]): significant decrease | release of IL-2 (Rhesus macaque PBMC [3]): decreased release | depletion of CD4+ T cells and CD8+ T cells (in words) (Rhesus macaque PBMC [4]): Significant depletion | fold decrease in the number of CD4+ T cells (Rhesus macaque PBMC [4]): 4.5 fold | fold decrease in the number of CD8+ T cells (Rhesus macaque PBMC [4]): 4.6 fold | mean fluorescent intensity of CD69 expression on CD4+ and CD8+ T cells (Rhesus macaque PBMC [4]): decreased | number of CD4+ T cells (Rhesus macaque PBMC [4]): 4.8±0.7 ×10^4 | number of CD8+ T cells (Rhesus macaque PBMC [4]): 2.3±0.4 ×10^4 | percentage of CD4+ rhesus T cells that are CD69+ (Rhesus macaque PBMC [4]): 63.6±1.9% | percentage of CD8+ rhesus T cells that are CD69+ (Rhesus macaque PBMC [4]): 60.7±3.1% | induction of apoptosis in CD4+ and CD8+ T cells (in words) (human PBMC [1]): No significant induction | fold increase in apoptotic CD4+ cells (Rhesus macaque PBMC [5]): 3.1 fold | fold increase in apoptotic CD8+ cells (Rhesus macaque PBMC [5]): 2.6 fold | percentage of Annexin V+ P1− CD8+ (Rhesus macaque PBMC [5]): 31.8±3.3% | absolute T cell numbers (in words) (human PBMC [6]): no significant depletion | expression levels of CD4 and CD8 on PBMC (in words) (human PBMC [6]): No decrease | percentage of cells positive for CD4 and CD8 (human PBMC [6]): not | CD69+CD4+ T cells (in words) (human PBMC [2]): No effect | IL-2R (CD25) expression in CD4+ and CD8+ T cells (in words) (human PBMC [2]): No effect | percentage of CD69+ CD8+ T cells (in words) (human PBMC [2]): No effect | percentages of both CD69+CD4+ T cells and CD69+CD8+ T cells (in words) (human PBMC [2]): No effect | cytokine production overall (in words) (human PBMC [9]): No effects | BrdU labeling (in words) (human PBMC [10]): No significant change | cycling pattern (in words) (human PBMC [10]): No change

LQNRRGLDLLFLKEGGL [CKS-17, reference compound]
levels of IL-2 [8]: decreased levels | levels of IL-10 [8]: increased levels | levels of IL-12 [8]: decreased levels | activity of protein kinase C (protein kinase C): blocks the activity
